Data reported in patent US12648928B2, “Intervention strategy for prevention or treatment of diabetes mellitus, autoimmune disease, inflammatory disease or cardiovascular disease” (ACADEMISCH MEDISCH CENTRUM, priority 2020, dated 2026).

Experiments:
Assay type in all cases: cell-based
murine DC = test: In vitro stimulation of murine dendritic cells, cytokine secretion; settings: GM-CSF differentiated DC
Procedure: Bone marrow-derived macrophages (BMDM) and DC (BMDC) were obtained by differentiating freshly isolated BM cells from femur and tibia bones (as above described) of C57/B16 mice (N=3 per experiment). For BMDM, BM cells were seeded at 3×10^6 cells per 10 cm dish and cultured for 7 days in 12 ml RPMI1640 medium with 20% fetal bovine serum, 30% L-929 cell conditioned media, as source of murine macrophage colony-stimulating factor (M-CSF). For BMDC, BM cells were seeded at 0.5×10^6/ml cells in 25 ml in 10 cm dishes and cultured for 7 days in presence of GM-CSF in 5% FBS-RPMI1640 medium. After differentiation, BMDM/DCs were harvested, counted and seeded at a density of 1×10^5 cells per well in a F-bottom 96-well plate and left to adhere for 20 hours before experiments were performed. […]
Specific ELISAs (R&D Systems) were utilized to measure the concentration of TNFα, IFNβ, and IFNγ in cell supernatant of murine monocytes, macrophages ad T cells, respectively, according to the manufacturer's instructions. The concentration of insulin after 24-hour treatment with metabolites or after GSIS were determined using Rat insulin ELISA (Mercodia) according to the manufacturer's instructions. GSIS was calculated by subtracting the concentration of insulin at 1 mM glucose to the insulin rate at 22 mM glucose. […]

human monocytes = test: In vitro stimulation of human monocytes; settings: LPS stimulation 24 hours, 100 μM (FIG. 10)
Procedure: The mononuclear cell fraction was isolated from the blood of healthy volunteers (Sanquin Bloodbank, Amsterdam, The Netherlands) by density centrifugation using Lymphoprep™ (Axis-Shield) and isolated using human CD14 magnetic beads and MACS® cell separation columns (Miltenyi Biotec) according to the manufacturer's instructions. Isolated primary human monocytes were counted and seeded at 1>10^6 cells/mL in 24-well plates with 1 ml medium supplemented with 10% fetal bovine serum, 100 U/ml penicillin, 100 μg/ml streptomycin, 2 mM L-glutamine. After seeding, cells were stimulated with 10 ng/ml LPS or 25 mM D-glucose (both Sigma-Aldrich) for 24 hours with/without 100 μM 6-BT. Afterwards, cells were lysed with Tripure isolation reagent (Roche) and stored at −80° C. until RNA isolation.
Total RNA was extracted from Tripure isolation reagent cell lysates. RNA was converted to cDNA by with iScript kit (BioRad). Quantitative polymerase chain reaction (qPCR) was performed using SYBR Green-SensiMix (Bioline) on a CFX384 Touch Real-Time PCR Detection System (BioRad). The delta delta Ct method was used to calculate gene expression as fold-change compared to control (unstimulated conditions).

NF-kB pathway = test: Phosphorylated p65 subunit after PMA/ionomycin activation, Jurkat cells; settings: human Jurkat cells; PMA 50 μg/ml and ionomycin 1 μg/ml; 5-10 minutes after activation (FIG. 18)
Procedure: Seeking for the molecular mechanism(s) underlying 6-BT actions, 6-BT impact on the activation of the NF-kB pathway, a central pathway in all inflammatory diseases (beyond autoimmunity) was checked first. […] Upon T cell activation with PMA ([…]) and ionomycin (1 μg/ml), 6-BT could inhibit, at very early time-points (5-10 minutes after activation), the NF-kB signaling. This effect was found in both murine and human (Jurkat cells) CD4 T cells.

murine CD4 T cells = test: Seahorse XF mitochondrial metabolism (OCR), murine CD4 T cells; settings: 100 uM; murine CD4 T cells (FIG. 22)
Procedure: (§1) Finally, it was uncovered that 6-BT also impacts the intracellular metabolism.
(§2) OCR=oxygen consumption rate, used as a proxy of cellular utilization of mitochondrial oxidative phosphorylation. OCR was measured using a Seahorse XF Analyzer Uchimura T., The Innate Immune Sensor NLRC3 Acts as a Rheostat that Fine-Tunes T Cell Responses in Infection and Autoimmunity. Immunity 2019; Chou, AIM2 in regulatory T cells restrains autoimmune diseases, Nature 2021.

[1] = tested on: human (Jurkat) CD4 T cells; test: Seahorse XF mitochondrial metabolism (OCR), Jurkat CD4 T cells; settings: 100 uM; human (Jurkat) CD4 T cells (FIG. 22)
Procedure: as §1, §2

[2] = tested on: pro-inflammatory M1 macrophages; test: Seahorse XF intracellular metabolism, M1 macrophages; settings: M1 macrophages differentiated in presence of LPS and IFNgamma (FIG. 23)
Description: Intracellular metabolism measured using a Seahorse XF Analyzer, Uchimura T., The Innate Immune Sensor NLRC3 Acts as a Rheostat that Fine-Tunes T Cell Responses in Infection and Autoimmunity. Immunity 2019; Chou, AIM2 in regulatory T cells restrains autoimmune diseases, nature 2021.

## N[C@@H](Cc1c[nH]c2cc(Br)ccc12)C(=O)O [6-BT, 6-bromotryptophan]
Murine DC; TLR3 activation with 10 μg/ml poly(I.C) (FIG. 15)
  secretion of IFNbeta by DC: inhibits the secretion
Murine DC; TLR4 activation with 100 μg/ml LPS (FIG. 15)
  secretion of TNFα by DC: inhibits the secretion
Human monocytes
  cytokine production by human monocytes: reduces cytokine production
NF-kB pathway
  NF-kB signaling (phosphorylated p65 subunit): could inhibit
Murine CD4 T cells
  mitochondrial metabolism (OCR): promotes the mitochondrial metabolism
[1]
  mitochondrial metabolism (OCR): promotes the mitochondrial metabolism
[2]
  glycolytic flux: without affecting the glycolytic flux
  mitochondrial metabolism: could enhance the mitochondrial metabolism
